SMILES strings stand for the structures. Read-outs that look alike come from different tables or passages of the source.

Series [1] deals with tyrosinase. As to conditions: cited from earlier work; for mode of tyrosinase inhibition: Lineweaver Burk diagram.
For series [2], the system named is tyrosinase. Kind of series: in vitro tyrosinase inhibition assay (L-Dopa conversion to dopachrome, absorption at 475 nm). Type of series: biochemical. The conditions noted are these: pH 6.8. As for the experimental part: An in vitro tyrosinase inhibition assay was carried out using a modification of the procedure described by Pomerantz […] J. Biol. Chem. 238:2351-2357. According to this method, the conversion of L-Dopa, a substrate of tyrosinase, into dopaquinone and then dopachrome is followed by monitoring absorption at 475 nm in a spectrophotometer. As the colored substance dopachrome absorbs light having a wavelength of 475 nm, a quantitative measurement of the time-related conversion and thus the activity of tyrosinase can be made.
Each sample was prepared in a 50 mM potassium phosphate buffer which had been adjusted to pH 6.8, and stabilized by the addition of 10% DMSO. Tyrosinase (48 u, "u" represents the activity units of an enzyme, measured in mM substratum conversion per minute) was added to each sample. A double assessment was carried out for each inhibitor, using two different starting concentrations of L-Dopa: 0.4 mM and 0.2 mM. Controls were also run using the same concentrations of uninhibited tyrosinase to serve as the neutral value. In the control samples the volume of inhibitor was replaced with 50 mM potassium phosphate buffer. The time-related difference in absorption, and thus the conversion of L-Dopa, was followed for a period of two minutes.
The conversion kinetics of the tyrosinase was measured upon addition of the following concentrations of inhibitor: arbutin (0.9 mM); aloesin (0.0192 mM; 0.0385 mM and 0.0769 mM) and with the respective combination of both of the inhibitors. Enzyme inhibition was determined from the difference between the inhibited and the uninhibited kinetics. It is worth noting that the compositions examined in this example contain no liposomes, as the penetration ability and bio-availability are of no significance in an in vitro test. The purpose of these in vitro studies was to determine the efficacy of the inhibitors (arbutin and aloesin) individually and combinations thereof.

The subject of another series is skin. The conditions noted are these: cited from earlier work; for quantity required to achieve a similar effect, compared to hydroquinone: relative to quantity of hydroquinone used.
In series [3] the test system is tyrosinase. The conditions noted are these: cited from earlier work.
The test system of the next series is synthesis of melanin. As to conditions: cited from earlier work.
The test system of series [4] is tyrosinase. Kind of series: inhibitory effect on tyrosinase of octylaloesin compared to aloesin. Type of series: biochemical.

With `COc1cc(/C=C/C(=O)O[C@@H]2[C@@H](O)[C@H](O)[C@@H](CO)O[C@H]2c2c(O)cc(C)c3c(=O)cc(CC(C)=O)oc23)ccc1O` [2"-O-feruloylaloesin], in the series on tyrosinase [1], the “mode of tyrosinase inhibition” value is on record as “non-competitive inhibitors” and the inhibition of tyrosinase result is “effective inhibitors of tyrosinase”.
Take `CC(=O)Cc1cc(=O)c2c(C)cc(O)c([C@@H]3O[C@H](CO)[C@@H](O)[C@H](O)[C@H]3O)c2o1` [aloesin]: the “% Inhibition Tyrosinase” value came to 20% with tyrosinase [2] (aloesin 0.0192 mM), 32% with tyrosinase [2] (aloesin 0.0385 mM) and 46% with tyrosinase [2] (aloesin 0.0769 mM). The “mode of tyrosinase inhibition” value with tyrosinase [1] is “non-competitive inhibitors”. Besides, the inhibition of tyrosinase result in the series with tyrosinase [1] is given as “effective inhibitors of tyrosinase”.
With `OC[C@H]1O[C@@H](Oc2ccc(O)cc2)[C@H](O)[C@@H](O)[C@@H]1O` [arbutin], the “% Inhibition Tyrosinase” value in the series with tyrosinase [2] (arbutin 0.9 mM) was determined as 29%. In the series on skin, the “quantity required to achieve a similar effect, compared to hydroquinone” value is given as “over 100 times”. In the series with tyrosinase [3], the “mode of tyrosinase inhibition” value was “competitive inhibitors”.
Consider `O=C1O[C@H]([C@@H](O)CO)C(O)=C1O` [ascorbic acid], for which the “quantity required to achieve a similar effect, compared to hydroquinone” value with skin is given as 17 times. Also, in the series with tyrosinase [3], the “mode of tyrosinase inhibition” value is “competitive inhibitors”.
Turning to `Oc1ccc(O)cc1` [hydroquinone], the side effects result in the series with skin (applied over long periods of time) was “serious side effects”. In addition, in the series with skin (exposed to UV light), the “photosensitivity of the skin” value is listed as “increased photosensitivity”. The “de-pigmentation (persistence)” value in the series on skin (in vivo) is recorded as “permanent de-pigmentation”.
On to `O=c1cc(CO)occ1O` [kojic acid], for which the “mode of tyrosinase inhibition” value in the series with tyrosinase [3] is given as “competitive inhibitors”.
For `CC/C=C\C/C=C\C/C=C\CCCCCCCC(=O)O` [linolenic acid], in the series with synthesis of melanin, the “inhibition of the synthesis of melanin” value is “inhibit the synthesis of melanin”.
Regarding `CCCCCCCCOc1cc(C)c2c(=O)cc(CC(C)=O)oc2c1[C@@H]1O[C@H](CO)[C@@H](O)[C@H](O)[C@H]1O` [octylaloesin], in the series on tyrosinase [4], the “inhibitory effect on tyrosinase compared to aloesin” value was “significantly higher inhibitory effect on tyrosinase”.

Source of the values: US6123959A, “Aqueous composition comprising active ingredients for the de-pigmentation of the skin” (Univera Pharmaceuticals, Inc., priority 1998, dated 2000).
